Results: patent EP1174421A1, “3-AMIDINOBENZENESULFONAMIDE DERIVATIVES, MEDICINAL COMPOSITIONS CONTAINING THE SAME AND INT[…] THE PRODUCTION THEREOF” (Kissei Pharmaceutical Co., Ltd., priority 1999, dated 2000)
Where a name gives a salt, the structure may show the parent alone. Read-outs that look alike come from different tables or passages of the source.

Legend:
[1] = molecular target: T1, human thrombin (Homo sapiens, UniProt P00734); experiment: Measurement of inhibitory activity for thrombin (S-2238 chromogenic substrate); format: biochemical
T1 construct: human thrombin (Sigma Chemical Company); purchased Sigma Chemical Company
Procedure: (§1) Five µL of dimethylsulfoxide solution of test compound, 375 µL of tris-hydrochloric acid buffer (pH 8.4) and 100 µL of 1 mM S-2238 (Daiichi Pure Chemicals) aqueous solution were mixed. Then 20 µL of 2.0 U/mL human thrombin (Sigma Chemical Company) in gelatin-glycine buffer was added and the mixture was incubated for 10 minutes at 37 °C. The reaction was terminated with the addition of 100 µL of 60 % acetic acid and absorbance (405 nm) was measured.
The group without test compound was defined as control and the group without human thrombin was defined as blank. […]

[2] = system: normal human plasma; experiment: Measurement of anticoagulation effects (plasma prothrombin time); format: biochemical; settings: CT2: concentration that prolonged the clotting time (prothrombin time) of control by 2 times
Procedure: Two µL of dimethylsulfoxide solution of test compound which was put in the process tube was incubated at 37 °C, and 50 µL of normal human plasma (George King Bio-Medical Inc.) was mixed. One minute later, 100 µL of plasma prothrombin time reagent (Neoplastin Plus® , Boehringer Mannheim) was added into the mixture. Prothrombin time was measured with ST4 (Boehringer Mannheim).
The group without test compound was defined as control. The concentration of test compound that prolonged the clotting time of control by 2 times (CT2) was obtained and this value was used as the index of anticoagulation activity.

[3] = molecular target: T2, human activated blood coagulation factor X (Homo sapiens, UniProt P00742); experiment: Measurement of inhibitory activity for activated blood coagulation factor X (S-2222 chromogenic substrate); format: biochemical
T2 construct: purchased Calbiochem Corporation
T2 sequence (P00742 235-488 limits assumed): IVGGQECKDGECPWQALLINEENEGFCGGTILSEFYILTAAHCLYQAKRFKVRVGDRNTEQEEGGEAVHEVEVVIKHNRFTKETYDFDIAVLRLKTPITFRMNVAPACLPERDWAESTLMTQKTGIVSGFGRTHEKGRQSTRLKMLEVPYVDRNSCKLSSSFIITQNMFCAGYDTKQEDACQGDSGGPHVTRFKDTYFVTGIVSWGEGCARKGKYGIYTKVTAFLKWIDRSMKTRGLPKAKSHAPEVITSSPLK
T2 sequence (P00742 41-179 partner limits assumed): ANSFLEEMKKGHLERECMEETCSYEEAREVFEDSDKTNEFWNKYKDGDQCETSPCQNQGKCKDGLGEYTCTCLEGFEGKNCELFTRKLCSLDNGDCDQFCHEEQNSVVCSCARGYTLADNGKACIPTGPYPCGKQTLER
Procedure: as §1, with “S-2222” for “S-2238”, “0.6” for “2.0”, “activated blood coagulation factor X (Calbiochem Corporation)” for “thrombin (Sigma Chemical Company)”
The group without test compound was defined as control and the group without human activated blood coagulation factor X was defined as blank.

[4] = system: Male Wistar rats; experiment: Acute toxicity test; format: in vivo; settings: 30 mg/kg, through tail vein (intravenous), groups of 5 rats, survival judged for 24 hours
Procedure: Male Wistar rats aged 7 weeks (SLC) were divided into several groups consisting of 5 rats. Test compound was dissolved at the concentration that became the administration volume of
2.5 mL/kg. The solution was administered through tail vein at an infusion rate of 1 mL/minute. Observations were performed at constant intervals, and survival rate was judged for 24 hours.

## CC(=N)N1CCC(c2ccc(CCNS(=O)(=O)c3cc(C(=N)N)ccc3O)cc2)CC1 [Compound 8, 5-Amidino-2-hydroxy-N-[2-[4-[1-(1-iminoethyl)piperidin-4-yl]phenyl]ethyl]benzenesulfonamide dihydorchloride]
[1]
  IC50: > 100000 nM
[2]
  Anticoagulation effect: 0.21 µM
[3]
  IC50: 87 nM
[4]
  Death cases: 0/5
[4]; listed as 5-amidino-2-hydroxy-N-[2-[4-[1-(1-iminoethyl)piperidin-4-yl]phenyl]ethyl]benzene
  Death cases: no death was observed

## CC(C)c1ccc(CCNS(=O)(=O)c2cc(C(=N)N)ccc2O)cc1 [Compound 2, 5-Amidino-N-[2-(4-isopropylphenyl)ethyl]-2-hydroxybenzene-sulfonamide hydrochloride]
[1]; IC50, pH 8.4, 10 minutes at 37 °C, absorbance 405 nm, read-out: Inhibitory activity for thrombin
  IC50: 101000 nM
[3]; IC50, pH 8.4, 10 minutes at 37 °C, absorbance 405 nm, read-out: Inhibitory activity for activated blood coagulation factor X
  IC50: 64 nM

## CC(=N)N1CC[C@H](Oc2ccc(CCNS(=O)(=O)c3cc(C(=N)N)ccc3O)cc2)C1 [Compound 9, (S)-5-Amidino-2-hydroxy-N-[2-[4-[1-(1-iminoethyl)pyrrolidin-3-yloxylphenyl]ethyl]benzenesulfonamidedihydrochloride]
[1]
  IC50: > 100000 nM
[2]
  Anticoagulation effect: 0.18 µM
[3]
  IC50: 88 nM

## CC(=N)N1CCC(Oc2ccc(CCNS(=O)(=O)c3cc(C(=N)N)ccc3O)cc2)CC1 [Compound 10, 5-Amidino-2-hvdroxv-N-[2-[4-[1-(1-iminoethyl)piperidin-4-yloxy]phenyl]ethyl]benzenesulfonamide dihydrochloride]
[1]
  IC50: > 100000 nM
[2]
  Anticoagulation effect: 0.22 µM
[3]
  IC50: 110 nM
